“And” between values parts separate entries of the source, which are not always exact repeats. Equal entries are not always repeated.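 1) Cells in 96-well plates. 2) Compound, 48 h, 5 concentrations. 3) Linear interpolation between surrounding doses. 4) Unreached endpoint = highest concentration. At the GI50, growth is halved. TGI marks complete inhibition of growth.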

Some test systems named below: 786-0 renal; A498 renal; HT29 colon; NCI-H460 lung; RPMI-8226 leukemia; SF-539 CNS; SK-MEL-28 melanoma; T-47D breast; UACC-257 melanoma; UACC-62 melanoma.
Common to all, as to assay: NCI tumour cell line growth inhibition, 48 h

In the case of `CS(=O)(=O)Nc1ccc(-c2cc(-c3ccccc3)cc(C(N)=O)c2N)cc1`, the GI50 is more than 25 µM in the experiment with 786-0 renal; more than 20.5 µM with A498 renal; more than 25 µM in the experiment on HT29 colon; more than 25 µM with NCI-H460 lung; 18.4 µM with RPMI-8226 leukemia; more than 25 µM in the experiment with SF-539 CNS. Also, the GI50 in the experiment with SK-MEL-28 melanoma is more than 25 µM; in the experiment on T-47D breast it was more than 21.5 µM; in the experiment with UACC-257 melanoma, more than 25 µM; with UACC-62 melanoma it was more than 25 µM. Moreover, the TGI with 786-0 renal, in the experiment on A498 renal, in the experiment on HT29 colon, in the experiment on NCI-H460 lung, with RPMI-8226 leukemia and with SF-539 CNS was more than 25 µM throughout. For the same compound, the TGI in the experiment with SK-MEL-28 melanoma, with T-47D breast, with UACC-257 melanoma and in the experiment on UACC-62 melanoma was more than 25 µM each time.
In the case of `Cc1ccccc1-n1ncc(C(=O)c2ccccc2)c1N`, the GI50 with 786-0 renal, in the experiment with A498 renal, with HT29 colon, in the experiment on NCI-H460 lung, in the experiment with RPMI-8226 leukemia and in the experiment on SF-539 CNS was more than 25 µM each time. In addition, the GI50 with SK-MEL-28 melanoma, in the experiment with T-47D breast, in the experiment on UACC-257 melanoma and with UACC-62 melanoma was more than 25 µM in each case. The TGI in the experiment on 786-0 renal, in the experiment on A498 renal, in the experiment on HT29 colon, with NCI-H460 lung, in the experiment on RPMI-8226 leukemia and in the experiment with SF-539 CNS was more than 25 µM each time. In addition, the TGI in the experiment on SK-MEL-28 melanoma, in the experiment on T-47D breast, in the experiment with UACC-257 melanoma and in the experiment on UACC-62 melanoma was more than 25 µM throughout.
In the case of `CC(C)(C)C(=O)OCOP(=O)(OCOC(=O)C(C)(C)C)C1CC(O)N(O)C1=O` (centres undefined), the GI50 in the experiment with 786-0 renal was 3.68 µM; with A498 renal it was 4.36 µM; with HT29 colon, 3.07 µM; in the experiment on NCI-H460 lung, 4.35 µM; in the experiment on RPMI-8226 leukemia, 2.88 µM; in the experiment with SF-539 CNS it was 3.18 µM. The GI50 with SK-MEL-28 melanoma is 2.38 µM; in the experiment with T-47D breast it was 5.9 µM; in the experiment with UACC-257 melanoma it was more than 100 µM; in the experiment with UACC-62 melanoma, 2.37 µM. The TGI in the experiment with 786-0 renal is more than 100 µM; in the experiment with A498 renal, 47.3 µM; in the experiment on HT29 colon, 16.4 µM; in the experiment with NCI-H460 lung it was more than 100 µM; in the experiment on RPMI-8226 leukemia, 14.6 µM; in the experiment with SF-539 CNS, 22.1 µM. The TGI is 6.44 µM with SK-MEL-28 melanoma, 89.7 µM with T-47D breast, more than 100 µM with UACC-257 melanoma and 7.4 µM in the experiment with UACC-62 melanoma.
For `CC1(C)CCC2=C(O1)c1ccccc1C(=O)C2=O`, the GI50 in the experiment with 786-0 renal was 1.99 µM; in the experiment on HT29 colon it was 3.43 µM; with NCI-H460 lung, 1.88 µM and 0.323 µM; in the experiment with RPMI-8226 leukemia it was 1.46 µM; with SF-539 CNS it was 1.63 µM; in the experiment on SK-MEL-28 melanoma, 1.88 µM and 0.406 µM. In addition, the GI50 in the experiment with T-47D breast was 1.49 µM; in the experiment with UACC-257 melanoma, 1.56 µM; in the experiment on UACC-62 melanoma, 1.79 µM. The TGI with 786-0 renal is 3.94 µM and 2.68 µM; with A498 renal, 11.3 µM; in the experiment on HT29 colon, more than 100 µM; with NCI-H460 lung, 3.69 µM and 1.15 µM; in the experiment on RPMI-8226 leukemia, 5.76 µM and 1.48 µM; in the experiment on SF-539 CNS, 2.99 µM and 0.918 µM. Moreover, the TGI was 3.39 µM and 1.44 µM in the experiment on SK-MEL-28 melanoma; 4.4 µM and 1.87 µM with T-47D breast; 3.05 µM and 0.429 µM with UACC-257 melanoma; 3.3 µM and 0.957 µM in the experiment with UACC-62 melanoma.
Take `CN(C)c1ccc(N=C2C=CC(=[N+](C)C)C=C2)cc1`: the GI50 in the experiment with 786-0 renal was 30 µM; in the experiment on A498 renal, 2.7 µM; in the experiment on HT29 colon, 3.74 µM; with NCI-H460 lung it was 5.36 µM; in the experiment on RPMI-8226 leukemia, 3.2 µM; in the experiment with SF-539 CNS it was 11.7 µM. Also, the GI50 is 14.2 µM in the experiment on SK-MEL-28 melanoma, 4.37 µM with T-47D breast, 7.12 µM with UACC-257 melanoma and 5.25 µM in the experiment on UACC-62 melanoma. In addition, the TGI in the experiment on 786-0 renal is more than 100 µM; in the experiment on A498 renal, more than 100 µM; with HT29 colon, 22.9 µM; in the experiment with NCI-H460 lung, 43.7 µM; with RPMI-8226 leukemia, 11.4 µM; with SF-539 CNS it was 45.8 µM. Further, the TGI with SK-MEL-28 melanoma was more than 100 µM; in the experiment on T-47D breast, 21.2 µM; with UACC-257 melanoma, 24.8 µM; in the experiment on UACC-62 melanoma, 34.6 µM.
As to `COc1cc(-c2nc3ccccc3s2)ccc1NC(=O)COc1ccc(Cl)cc1`, the GI50 in the experiment with 786-0 renal is 1.96 µM; in the experiment with A498 renal, 44.5 µM; in the experiment with HT29 colon it was 3.66 µM; with NCI-H460 lung, 2.99 µM; in the experiment on RPMI-8226 leukemia, 11.8 µM; with SF-539 CNS, 61.6 µM. The GI50 with SK-MEL-28 melanoma is 6.33 µM; in the experiment on T-47D breast it was 4.42 µM; in the experiment on UACC-257 melanoma, 13.5 µM; in the experiment on UACC-62 melanoma, 2.74 µM. In addition, the TGI with 786-0 renal is 4 µM; in the experiment on A498 renal, more than 100 µM; in the experiment with HT29 colon, more than 100 µM; in the experiment on NCI-H460 lung it was more than 100 µM; in the experiment on RPMI-8226 leukemia it was more than 100 µM; in the experiment with SF-539 CNS, more than 100 µM. The TGI is 71.3 µM in the experiment with SK-MEL-28 melanoma, more than 100 µM in the experiment with T-47D breast, more than 100 µM in the experiment on UACC-257 melanoma and 13 µM with UACC-62 melanoma.
With `O=C1C(=O)c2c(nc3ccc(Br)cn23)-c2ccccc21`, the GI50 with 786-0 renal is 1.85 µM; in the experiment with A498 renal it was 1.51 µM; in the experiment with HT29 colon, 2.44 µM; in the experiment with NCI-H460 lung it was 1.09 µM; with RPMI-8226 leukemia, 0.388 µM; with SF-539 CNS, 0.472 µM. In addition, the GI50 in the experiment on SK-MEL-28 melanoma was 0.606 µM; in the experiment with T-47D breast, 1.44 µM; in the experiment on UACC-257 melanoma it was 0.747 µM; in the experiment with UACC-62 melanoma, 0.365 µM. The TGI with 786-0 renal came to 3.36 µM; with A498 renal it was 2.87 µM; in the experiment on HT29 colon, 6.12 µM; with NCI-H460 lung, 2.69 µM; in the experiment on RPMI-8226 leukemia, 2.67 µM; with SF-539 CNS, 1.01 µM. The TGI with SK-MEL-28 melanoma stood at 1.56 µM; in the experiment with T-47D breast, 3.89 µM; with UACC-257 melanoma, 2.09 µM; in the experiment with UACC-62 melanoma, 1.27 µM.

For the origin of these results see PubChem BioAssay (NCI).
